Data published in patent publication US8183387B2, “Phenylpyrazole derivatives” (Taisho Pharmaceutical Co., Ltd, priority 2007, dated 2012).

Legend:
[1] = Metabolic stability test in human liver; format: in vitro ADME; conditions: liver microsomes, pH 7.4; human liver microsome 1 mg protein/mL, test compound 1 μM, 37° C.
Experimental: Using human liver microsome (Xenotech, H0630), the in vitro metabolic half-life was calculated. A reaction solution (300 μL) was prepared to contain a test compound at 1 μM in 250 mM Na—K-phosphate buffer (pH 7.4) containing, at final concentrations, 2.4 mM MgCl2, 1.5 mM glucose-6-phosphate (G-6-P), 0.18 U/mL glucose-6-phosphate dehydrogenase (G-6-P DH), 69 mM KCl, 0.16 mM (3-nicotinamide-adenine dinucleotide phosphate, oxidized form (NADP) and 1 mg microsomal protein/mL. After pre-incubation at 37° C. for 5 minutes, the NADP solution was added to initiate the reaction. The incubation time was set to 0, 10, 20, 30, 45 or 60 minutes. The reaction was stopped by addition of a CH3CN:CH3OH (1:1) solution in the same volume as that of the reaction solution. The sample after the reaction was centrifuged at 3639×g at 4° C. for 10 minutes, and the resulting supernatant was analyzed by LC/MS. Using the time period during which linearity was observed, the metabolic half-life was calculated from the slope.

[2] = molecular target: T1, human recombinant δ receptor (Homo sapiens, UniProt P41143); test: [3H]DADLE binding test; conditions: [3H]DADLE 0.5 nM
T1 construct: Cerep, Inc. (contract assay)
T1 sequence (P41143 whole entry): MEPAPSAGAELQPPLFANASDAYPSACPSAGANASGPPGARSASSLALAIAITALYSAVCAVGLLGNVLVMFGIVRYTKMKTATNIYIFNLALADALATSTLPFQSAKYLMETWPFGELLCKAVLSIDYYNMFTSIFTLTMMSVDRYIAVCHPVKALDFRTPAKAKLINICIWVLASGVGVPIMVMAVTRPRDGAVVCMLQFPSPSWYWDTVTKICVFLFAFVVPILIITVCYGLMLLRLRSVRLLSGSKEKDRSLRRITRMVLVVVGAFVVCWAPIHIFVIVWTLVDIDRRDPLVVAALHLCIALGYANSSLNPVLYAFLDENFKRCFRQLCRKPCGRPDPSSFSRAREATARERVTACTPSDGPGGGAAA
Experimental: Affinity for δ receptor was evaluated in a [^3H]DADLE binding test by Cerep, Inc. The δ receptor preparation used was human recombinant δ receptor. The human recombinant δ receptor was incubated with [^3H]DADLE (0.5 nM) at 22° C. for 120 minutes.

σ1 receptor = molecular target: T2, σ1 receptor (Homo sapiens, UniProt Q99720); test: [3H](+)pentazocine binding test; conditions: [3H](+)pentazocine 8 nM, Jurkat cell membrane
T2 construct: host or cells: Jurkat cells (membrane)
T2 sequence (Q99720 whole entry): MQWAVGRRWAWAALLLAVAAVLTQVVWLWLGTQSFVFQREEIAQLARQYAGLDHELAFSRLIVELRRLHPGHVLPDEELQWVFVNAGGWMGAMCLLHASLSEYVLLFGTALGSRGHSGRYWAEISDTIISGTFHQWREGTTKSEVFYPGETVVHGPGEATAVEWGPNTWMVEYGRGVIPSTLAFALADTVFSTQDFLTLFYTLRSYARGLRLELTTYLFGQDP
Experimental: Affinity for σ1 receptor was evaluated in a [^3H](+)pentazocine binding test by Cerep, Inc. The σ1 receptor preparation used was the membrane of Jurkat cells. The Jurkat cell membrane was incubated with [^3H](+)pentazocine (8 nM) at 22° C. for 120 minutes.

[3] = molecular target: T3, rat recombinant κ receptor (Rattus norvegicus, UniProt P34975); test: [3H]U69593 binding test; conditions: [3H]U69593 1 nM
T3 construct: Cerep, Inc. (contract assay)
T3 sequence (P34975 whole entry): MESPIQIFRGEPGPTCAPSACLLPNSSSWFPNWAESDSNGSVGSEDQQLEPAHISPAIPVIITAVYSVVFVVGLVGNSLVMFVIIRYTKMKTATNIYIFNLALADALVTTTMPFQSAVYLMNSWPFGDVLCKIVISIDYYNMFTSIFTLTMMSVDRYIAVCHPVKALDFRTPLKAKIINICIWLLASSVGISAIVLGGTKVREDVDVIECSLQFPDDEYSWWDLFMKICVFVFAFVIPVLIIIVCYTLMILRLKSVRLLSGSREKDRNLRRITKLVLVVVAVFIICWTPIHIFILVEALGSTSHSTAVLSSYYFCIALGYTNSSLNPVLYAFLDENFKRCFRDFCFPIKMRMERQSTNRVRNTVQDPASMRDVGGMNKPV
Experimental: Affinity for κ receptor was evaluated in a [^3H]U69593 binding test by Cerep, Inc. The κ receptor preparation used was rat recombinant κ receptor. The rat recombinant κ receptor was incubated with [^3H]U69593 (1 nM) at 22° C. for 60 minutes.

Sprague-Dawley rats = test: Social recognition test; format: in vivo, rat
Experimental: This experiment was performed with Sprague-Dawley rats (male) according to the reported method (Shimazaki et al., European Journal of Pharmacology, 575, 94-97, 2007). Adult rats (9 weeks of age) were placed in a test cage and acclimated for 30 minutes. After 30 minutes, juvenile rats (4 weeks of age) were placed in the same test cage containing the adult rats, and allowed to stand for 5 minutes. During this 5 minutes, the time taken for the adult rats to show social behavior (sniffing, grooming, following) to the juvenile rats was measured (first exploratory time). Then, the rats were removed from the test cage and returned to their respective home cages. After 85 minutes, the adult rats were placed again in the test cage and acclimated for 30 minutes. The same juvenile rats as used in the first exploratory were placed in the test cage, followed by measuring the time taken for the adult rats to show social behavior (sniffing, grooming, following) to the juvenile rats during 5 minutes (second exploratory time). The social recognition was expressed as the ratio of second exploratory time/first exploratory time. A test substance (the compound of Example 70) was orally administered to the adult rats immediately after their first social behavior.

[4] = Distribution test in rats; format: in vivo, rat; conditions: SD rats, single oral dose 3 mg/kg (2.75 mg/kg as a free form); plasma and organs at 1, 2, 4, 8 and 24 hours
Experimental: SD rats were used and orally administered once with the compound of Example 70 at a dose of 3 mg/kg (2.75 mg/kg as a free form) to confirm the tissue distribution of the compound in plasma, brain, liver, kidney, spleen, lung, heart, muscle, fat, testis, bone marrow and adrenal gland at 1, 2, 4, 8 and 24 hours after administration. For quantification, high performance liquid chromatography/tandem mass spectrometry (LC-MS/MS) was used.

CHL/IU cells = test: Cytotoxicity test; format: cell-based, Chinese hamster; conditions: 48 hours culture, Cell counting kit-8
Experimental: Chinese hamster lung fibroblast-derived CHL/IU cells (DS Pharma Biomedical Co., Ltd., Japan) were seeded, and the medium was replaced on the following day by another medium (MEM+2 mM L-Glutamine+10% CS (all purchased from Invitrogen)) containing a test compound at various concentrations, followed by culture for an additional 48 hours. Using a Cell counting kit-8 (Dojindo Laboratories, Japan), the survival rate of the cells was determined to obtain a curve whose horizontal axis represents the test compound concentration and whose vertical axis represents the survival rate. The curve thus obtained was used to determine the concentration of the test compound at which the survival rate was 50%. As a result, this concentration was 275, 441 and >640 mmol/L for the compounds of Examples 56, 62 and 70, respectively.

[5] = molecular target: human recombinant μ receptor (Homo sapiens, UniProt P35372); test: [3H]diprenorphine binding test; conditions: read-out: % Inhibition (10 μM), μ receptor
human recombinant μ receptor, sequence (P35372 whole entry): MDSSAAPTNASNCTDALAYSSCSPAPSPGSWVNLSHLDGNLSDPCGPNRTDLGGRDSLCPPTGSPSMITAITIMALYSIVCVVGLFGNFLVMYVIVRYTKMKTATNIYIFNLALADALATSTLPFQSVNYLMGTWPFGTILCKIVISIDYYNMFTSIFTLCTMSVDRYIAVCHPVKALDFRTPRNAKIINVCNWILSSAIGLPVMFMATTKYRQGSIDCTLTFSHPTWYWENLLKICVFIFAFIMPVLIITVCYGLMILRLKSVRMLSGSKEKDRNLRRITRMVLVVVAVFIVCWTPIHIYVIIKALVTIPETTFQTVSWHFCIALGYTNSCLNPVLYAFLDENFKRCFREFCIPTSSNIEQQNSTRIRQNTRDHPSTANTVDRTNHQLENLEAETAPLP
Experimental: Affinity for μ receptor was evaluated in a [^3H]diprenorphine binding test by Cerep, Inc. The μ receptor preparation used was human recombinant μ receptor. […] Binding of [^3H]diprenorphine in the presence of 1 μM naltrexone was defined as non-specific binding, and the difference between total binding and non-specific binding of [^3H]diprenorphine was defined as specific binding of [^3H]diprenorphine.

SMILES | half-life at 1 μM [1] [h] | inhibition at 10 µM [2] [%] | inhibition at 10 µM (σ1 receptor) [%] | inhibition at 10 µM [3] [%] | effect on cognitive functions (Sprague-Dawley rats; 10 mg/kg oral, rats, compared to vehicle group) | Ratio (second exploratory time/first exploratory time) (Sprague-Dawley rats; 10 mg/kg orally to adult rats immediately after first social behavior, n = 18, p<0.01 vs vehicle) | tissue distribution of unchanged form and major metabolites [4] | concentration of the test compound at which the survival rate was 50% (CHL/IU cells) [µM] | inhibition at 10 µM [5] [%]
C[C@@H]1CCCN1CCCOc1ccc(-n2cc(C(=O)N3CCOCC3)cn2)cc1 [Example 6, 4-{[1-(4-{3-[(2R)-2-methylpyrrolidin-1-yl]propoxy}phenyl)-1H-pyrazol-4-yl]carbonyl}morpholine] | ≥ 3 | – | – | – | – | – | – | – | –
C[C@@H]1CCCN1CCCOc1ccc(-n2cc(C(=O)N3CCOCC3)cn2)cc1.Cl [Example 70, 4-{[1-(4-{3-[(2R)-2-methylpyrrolidin-1-yl]propoxy}phenyl)-1H-pyrazol-4-yl]carbonyl}morpholine monohydrochloride] | – | -1 | 28 | 17 | had an enhancing effect on cognitive functions | 0.66 ± 0.06^p<0.01 | rapidly disappear from each organ | > 640000 | 3
